Measured values taken from ChEMBL document CHEMBL1158441 (Bioorg Med Chem Lett, 2009).

Assays:
Sphingosine kinase 2 = target: T1, Sphingosine kinase 2 (Homo sapiens, UniProt Q9NRA0); test: Inhibition of SphK2
T1 sequence (Q9NRA0 whole entry): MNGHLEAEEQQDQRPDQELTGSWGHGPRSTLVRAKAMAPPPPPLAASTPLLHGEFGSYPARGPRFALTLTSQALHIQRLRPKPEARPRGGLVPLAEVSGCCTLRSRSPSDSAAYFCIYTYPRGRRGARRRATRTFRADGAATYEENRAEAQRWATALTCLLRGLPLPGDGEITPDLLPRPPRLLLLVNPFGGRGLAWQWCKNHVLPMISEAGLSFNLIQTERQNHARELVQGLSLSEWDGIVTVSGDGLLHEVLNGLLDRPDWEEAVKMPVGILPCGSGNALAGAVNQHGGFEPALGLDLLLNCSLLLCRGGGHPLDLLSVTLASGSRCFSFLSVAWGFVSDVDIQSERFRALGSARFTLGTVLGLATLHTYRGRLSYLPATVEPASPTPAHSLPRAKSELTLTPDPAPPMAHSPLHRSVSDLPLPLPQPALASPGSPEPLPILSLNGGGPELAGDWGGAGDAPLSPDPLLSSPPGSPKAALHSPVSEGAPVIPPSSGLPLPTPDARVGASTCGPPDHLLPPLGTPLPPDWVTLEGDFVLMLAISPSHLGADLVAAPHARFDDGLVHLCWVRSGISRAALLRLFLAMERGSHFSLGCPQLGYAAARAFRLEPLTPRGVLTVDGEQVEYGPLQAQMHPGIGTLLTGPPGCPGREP

Sphingosine kinase 1 = Sphingosine kinase 1 (Homo sapiens, UniProt Q9NYA1); test: Inhibition of SphK1
Sphingosine kinase 1, sequence (Q9NYA1 whole entry): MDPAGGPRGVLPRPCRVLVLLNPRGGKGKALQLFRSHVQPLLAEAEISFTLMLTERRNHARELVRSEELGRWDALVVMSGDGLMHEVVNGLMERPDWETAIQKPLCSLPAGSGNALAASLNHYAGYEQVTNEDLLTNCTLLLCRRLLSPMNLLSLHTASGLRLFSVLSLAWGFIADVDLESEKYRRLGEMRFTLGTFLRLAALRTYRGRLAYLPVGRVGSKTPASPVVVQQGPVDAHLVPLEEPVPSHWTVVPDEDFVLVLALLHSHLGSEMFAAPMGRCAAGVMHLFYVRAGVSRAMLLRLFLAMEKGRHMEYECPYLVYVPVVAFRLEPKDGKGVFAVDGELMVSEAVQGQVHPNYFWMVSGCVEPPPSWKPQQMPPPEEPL

| SMILES | IC50 (Sphingosine kinase 2) [µM] | IC50 (Sphingosine kinase 1) [µM] |
| --- | --- | --- |
| N[C@@H](CO)[C@H](O)/C=C/CCCCCCc1ccc(I)cc1 | 7.23 | 3.96 |
| N[C@@H](CO)[C@H](O)/C=C/CCCCCCCCc1ccc(I)cc1 | 5.73 | 0.5 |
| N[C@@H](CO)[C@H](O)/C=C/CCCCCCCCCCCCCc1ccc(I)cc1 | 29.2 | 3.98 |
| N[C@@H](CO)[C@H](O)/C=C/CCCCCCCCCc1ccc(I)cc1 | 16.6 | 2.78 |
| N[C@@H](CO)[C@H](O)/C=C/CCCCCCCCCCc1ccc(I)cc1 | 4.38 | 2.19 |
| N[C@@H](CO)[C@H](O)/C=C/CCCCCCCCCCCc1ccc(I)cc1 | 13.3 | 2.25 |
| CCCCCCCCCCCCC/C=C/[C@@H](O)[C@H](CO)N(C)C [DIMETHYLSPINGOSINE] | > 80 |  |
| CCCCCCCCCCCCC/C=C/[C@@H](O)[C@@H](N)CO [SPHINGOSINE] | 1.56 |  |
